Results from publication PMC3119039 (2011).

Target: Cdk2^as (Homo sapiens, UniProt P24941, F80G)
Experiment: histone H1 kinase assay with [γ-32P]ATP, purified Cdk2/cyclin A
Assay type: biochemical

Cc1cccc(Cc2nn(C(C)(C)C)c3ncnc(N)c23)c1 [3-MB-PP1]
IC50: ~3 nM
